SMILES strings stand for the structures. Structures can show the parent of a compound that is named as a salt.

One assay has as its target T1, human glucokinase (Homo sapiens, UniProt P35557).
T1 construct: made in house; host or cells: E. coli
T1 sequence (P35557 16-465): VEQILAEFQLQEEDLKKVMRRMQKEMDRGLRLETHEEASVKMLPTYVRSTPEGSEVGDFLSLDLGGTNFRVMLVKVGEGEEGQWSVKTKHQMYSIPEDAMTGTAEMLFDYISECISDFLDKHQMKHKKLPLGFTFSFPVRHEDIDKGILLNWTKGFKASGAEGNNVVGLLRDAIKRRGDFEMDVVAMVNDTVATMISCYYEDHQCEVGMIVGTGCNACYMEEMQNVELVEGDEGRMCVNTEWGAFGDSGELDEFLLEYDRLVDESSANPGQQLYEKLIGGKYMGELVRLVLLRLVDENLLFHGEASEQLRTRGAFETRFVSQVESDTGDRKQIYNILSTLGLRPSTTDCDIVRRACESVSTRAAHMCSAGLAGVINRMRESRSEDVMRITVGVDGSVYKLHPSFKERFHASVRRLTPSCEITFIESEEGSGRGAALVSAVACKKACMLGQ
The assay is described as follows: Measurement of glucokinase activity (G6PDH-coupled, absorbance at 340 nm). Format: biochemical. As to conditions: read-out: GK activation effect (%). How it is done: To the EcoRI, HindIII site of a pQE-80 expression vector were introduced a DNA fragment in which the same restriction enzyme site had been added to the N-terminal deficiency (1-15 amino acids deficiency)-encoding region of a human GK. E. coli was transformed by using this plasmid to express a human glucokinase, and purification was conducted as follows.
A fungus body that had been collected from 200 ml of an E. coli culture solution was collected and suspended in 20 ml of Extraction buffer A (20 mM HEPES, pH 8.0, 1 mM MgCl2, 150 mM NaCl, 2 mM mercaptoethanol, 0.25 mg/ml lysozyme, […] sodium azide), and the suspension was stood still at room temperature for 5 minutes. 20 ml of Extraction buffer B (1.5 M NaCl, 100 mM CaCl2, 100 mM MgCl2, 0.02 mg/ml DNA catabolic enzyme 1, a protease inhibitor tablet (Complete (registered trademark) 1697498): one tablet per 20 ml of the buffer) was added therero, followed by standing still at room temperature for 5 minutes. The extract liquid was then centrifuged by 15,000 g for 30 minutes at 4° C., and the supernatant was used as an E. coli extract liquid. The E. coli extract liquid was filtered by a 0.45 μm filter and applied to an Ni-NTA agarose 2 mL bed that had been equilibrated with a buffer (20 mM HEPES pH 8.0, 0.5 M NaCl) comprising 20 mM of imidazole. The bed was washed with about 10 ml of a washing buffer and eluted stepwise with buffers (20 mM HEPES pH 8.0, 0.5 M NaCl) each comprising imidazole by from 40 to 500 mM. Each of the column fractions was analyzed by using SDS gel electrophoresis, and the fraction comprising hGK (MW: 52 KDa) was concentrated. The concentrated sample was then passed through a Sephacryl S-200HR (11/60) gel filtration column and eluted with buffer B (20 mM HEPES, pH 8.0, 1 mM MgCl2, 150 mM NaCl, 1 mM DTT). The eluted fraction was analyzed by SDS gel electrophoresis, and the fraction comprising hGK was concentrated. Finally, 50% glycerol was added to the fraction, and the fraction was stored at −20° C.
178 μl of GK assay mix (25 mM Hepes buffer (pH 7.1), 25 mM KCl, 2 mM MgCl2, 1 mM NADP, 1 mM dithiotheitol, 2 unit/mL G6PDH, 5 mM D-glucose, a suitable amount of GK) was added to a UV permeable 96-well plate. 2 μl of the test compound dissolved in DMSO was added thereto, followed by standing still at room temperature for 10 minutes, and 20 μl al of 20 mM ATP was then added thereto to start a reaction. An absorbance at 340 nm was measured by Spectra Max Plus for 5 minutes at intervals of 30 seconds at room temperature, and the compound was evaluated in the reaction at the first 3 minutes.
As to `Cc1sc([C@@H]2C[C@@H](F)CN2C(=O)CNS(C)(=O)=O)cc1C(=O)Nc1ncc(F)s1` [Example 12, (−)-5-[(2S,4R)-4-Fluoro-1-(2-methanesulfonylaminoacetyl)pyrrolidin-2-yl]-2-methylthiophene-3-carboxylic acid (5-fluorothiazol-2-yl)amide], the activation at 10 µM was found to be 630%.
For `CC(=O)N[C@@H](C)C(=O)N1C[C@H](F)C[C@H]1c1cc(C(=O)Nc2ncc(F)s2)c(C)s1` [Example 23, (−)-5-[(2S,4R)-1-((S)-2-Acetylaminopropionyl)-4-fluoropyrrolidin-2-yl]-2-methylthiophene-3-carboxylic acid (5-fluorothiazol-2-yl)amide], the activation at 10 µM was 641%.

Still in this assay, the particulars now being: test compound at final concentration of 10 μM, 5 mM D-glucose, in comparison with a well that did not comprise the compound; read-out: GK activation effect (%).
As for `CCCCCN(CC(=O)O)CC(=O)N1C[C@H](F)C[C@H]1c1cc(C(=O)Nc2ncc(F)s2)c(C)s1` [Example 80, [(2-[(2S,4R)-4-Fluoro-2-[4-(5-fluorothiazol-2-ylcarbamoyl)-5-methylthiophen-2-yl]pyrrolidin-1-yl]-2-oxoethyl)pentylamino]acetic acid], the activation at 10 µM is 752%.
For `Cc1sc([C@@H]2C[C@@H](F)CN2C(=O)CN(C)CC(=O)O)cc1C(=O)Nc1ncc(F)s1` [Example 38, [(2-{(2S,4R)-4-Fluoro-2-[4-(5-fluorothiazol-2-ylcarbamoyl)-5-methylthiophen-2-yl]pyrrolidin-1-yl}-2-oxoethyl)methylamino]acetic acid hydrochloride], the activation at 10 µM was determined as 801%.
Take `Cc1sc(C2CCCN2C(=O)[C@H](C)NC(N)=O)cc1C(=O)Nc1ncc(F)s1` (single isomer, unassigned; (-)) [Example 22]: the activation at 10 µM worked out at 613%.
Turning to `Cc1sc(C2CCCN2C(=O)CNC(N)=O)cc1C(=O)Nc1ncc(F)s1` (single isomer, unassigned; (-)) [Example 10, (−)-2-Methyl-5-[1-(2-ureidoacetyl)pyrrolidin-2-yl]thiophene-3-carboxylic acid (5-fluorothiazol-2-yl)amide], the activation at 10 µM is 600%.
Take `Cc1sc(C2CCCN2C(=O)CN(C)CCCCC(=O)O)cc1C(=O)Nc1ncc(F)s1` (stereo not drawn) [Example 78, 5-[(2-{2-[4-(5-Fluorothiazol-2-ylcarbamoyl)-5-methylthiophen-2-yl}pyrrolidin-1-yl]-2-oxoethyl)methylamino]pentanoic acid hydrochloride]: the activation at 10 µM was 695%.
On to `Cc1sc(C2CCCN2C(=O)CN(C)CCCCC(=O)O)cc1C(=O)Nc1ncc(Cl)s1` (stereo not drawn) [Example 79, 5-[(2-{2-[4-(5-Chlorothiazol-2-ylcarbamoyl)-5-methylthiophen-2-yl]pyrrolidin-1-yl}-2-oxoethyl)methylamino]pentanoic acid hydrochloride], for which the activation at 10 µM was determined as 717%.
Still for that read-out and setting: under `CCCCCN(CC(=O)O)CC(=O)N1CCCC1c1cc(C(=O)Nc2ncc(F)s2)c(C)s1` (stereo not drawn) [Example 81, [(2-[2-[4-(5-Fluorothiazol-2-ylcarbamoyl)-5-methylthiophen-2-yl]pyrrolidin-1-yl]-2-oxoethyl)pentylamino]acetic acid] stands 787%.

Values taken from patent publication US20120101137A1, “NOVEL THIOPHENECARBOXAMIDE DERIVATIVE AND PHARMACEUTICAL USE THEREOF” (SANWA KAGAKU KENKYUSHO CO., LTD., priority 2009, published 2012).
